From patent US9241921B2, “Photosensitizer composition for treating skin disorders” (priority 2011, dated 2016)

System: acne vulgaris
Assay: Open-label prospective human study of topical ALA-PDT in acne vulgaris
Type: in vivo
Conditions: after treatment, amelioration of acne (FIG. 5)
Description: Photodynamic therapy with topical ALA composition as described in Example 1 was tested for the treatment of acne vulgaris, in an open-label prospective human study. 22 subjects with acne on their back were treated at 4 different sites with one of the following at each site: ALA plus red light (ALA-PDT), ALA alone, light alone, and untreated control. Half of the subjects were treated once; half were treated 4 times. 20% topical ALA of Example 1 was applied with 3 hr occlusion, and 150 J/cm^2 broad band light ([…]) was applied to the treated site. Sebum excretion rate and auto-fluorescence from follicular bacteria were measured before, and at 2, 3, 10, and 20 weeks after treatment. […]
Subjects were randomly divided into single treatment group or multiple treatment group. At baseline, clinical evaluations, natural bacterial porphyrin fluorescence photography, and sebum excretion rate (SER) evaluation were performed. […] In both groups, subjects returned one week after treatments for clinical evaluations and at weeks 2, 3, 10 and 20 for clinical, fluorescence, and SER evaluations.
Each subject's acne was visually assessed using an inflammatory acne score modified from that previously described (Burke et al., 1994). […] The numbers of comedo, inflammatory comedo, papules, pustules, nodules and cysts in each test area were recorded. […]

O=C(OOC(=O)c1ccccc1)c1ccccc1 [Benzoyl Peroxide]
time until therapeutic effect occurred: eight to twelve
